27 compounds from US20100041642A1, “UREA INHIBITORS OF MAP KINASES” (LOCUS PHARMACEUTICALS, INC., priority 2008, published 2010) can be followed below.

p38, sequence (Q16539 whole entry, the tested form may be a part): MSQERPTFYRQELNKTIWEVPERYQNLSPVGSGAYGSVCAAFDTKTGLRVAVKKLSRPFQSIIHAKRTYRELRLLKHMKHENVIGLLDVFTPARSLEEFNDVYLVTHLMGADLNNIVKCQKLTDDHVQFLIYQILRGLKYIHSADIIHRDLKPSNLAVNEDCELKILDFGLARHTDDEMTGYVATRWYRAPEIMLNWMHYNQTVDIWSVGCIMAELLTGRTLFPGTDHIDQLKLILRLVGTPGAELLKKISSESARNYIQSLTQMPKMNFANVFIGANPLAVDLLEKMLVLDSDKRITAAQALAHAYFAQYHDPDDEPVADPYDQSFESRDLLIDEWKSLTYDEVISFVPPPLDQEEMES

The assay addresses p38 (Homo sapiens, UniProt Q16539). The assay is described as follows: Protein Kinase Assay (33P incorporation from γ-[33P]ATP into GST-ATF-2). Type of assay: biochemical. Conditions: 2 nM p38, preincubated 20 min at 30° C.; 10 uM cold ATP, 2 uM GST-ATF2, 70 min; read-out: ACT. (Activity), IC50 category in Protein Kinase Assay. The procedure: Protein Kinase Assay. The protein kinase activity of p38 was determined by measuring the incorporation of ^33P from γ-[^33P]ATP into the GST-ATF-2 substrate, amino acids 19-96 (Upstate, N.Y. USA). The reactions were carried out in a final volume of 50 μL of 24 mM Tris-HCl buffer, pH 7.5, containing 13 mM MgCl2, 12% Glycerol, 2% DMSO, 2 mM DTT, […] of γ-[^33P]ATP (1000 Ci/mmol; 1 Ci=37 GBq) (GE Healthcare, Piscataway, N.J.), 10 uM cold ATP (GE Healthcare, Piscataway, N.J.), and 2 uM GST-ATF2. Compounds were preincubated with 2 nM p38 for 20 min at 30° C.; the reactions were initiated by the addition of GST-ATF2 and ATP and incubated for 70 min at 30° C. before being stopped by the addition of 10 μL of 600 mM phosphoric acid. The phosphorylated substrate was captured on phosphocellulose 96-well plate (Millipore MAPHNOB 10), washed with 100 mM phosphoric acid, and counted in a BeckmenCoulter LS6500 liquid scintillation counter. […] (Activity).
In the case of `CCNC(=O)c1ccc(-c2cc(NC(=O)Nc3cc(C(C)(C)C)sc3C(=O)N3CCNC(=O)C3(C)C)ccc2C)cn1`, the IC50 is below 0.1 µM.
In the case of `Cc1ccc(NC(=O)Nc2sc(C(C)(C)C)cc2C(=O)N2CCNS(=O)(=O)CC2)cc1-c1ccc(CN2CCOCC2)nc1` it was below 0.1 µM; in that of `Cc1nnc(-c2ccc(-c3cc(NC(=O)Nc4cc(C(C)(C)C)sc4C(=O)N4CCN(C)C(=O)C4(C)C)ccc3C)cn2)o1`, below 0.1 µM.
Consider `CCOc1ccc(-c2cc(NC(=O)Nc3cn(C(C)(C)C)nc3C(=O)N3CCN(C)C(=O)C3(C)C)ccc2C)cn1` [1-(1-tert-butyl-3-(2,2,4-trimethyl-3-oxopiperazine-1-carbonyl)-1H-pyrazol-4-yl)-3-(3-(6-ethoxypyridin-3-yl)-4-methylphenyl)urea], for which the IC50 is below 0.1 µM.
To `CCc1ccc(-c2cc(NC(=O)Nc3cn(C(C)(C)C)nc3C(=O)N3CCN(C)C(=O)C3(C)C)ccc2C)cn1` [1-(1-tert-butyl-3-(2,2,4-trimethyl-3-oxopiperazine-1-carbonyl)-1H-pyrazol-4-yl)-3-(3-(6-ethylpyridin-3-yl)-4-methylphenyl)urea] belongs below 0.1 µM; to `CCc1ccc(-c2cc(NC(=O)Nc3cn(C(C)(C)C)nc3C(=O)N3CCN(C)C(=O)C3(C)C)cc(F)c2C)cn1` [1-(1-tert-butyl-3-(2,2,4-trimethyl-3-oxopiperazine-1-carbonyl)-1H-pyrazol-4-yl)-3-(3-(6-ethylpyridin-3-yl)-5-fluoro-4-methylphenyl)urea], below 0.1 µM; to `Cc1ccc(NC(=O)Nc2cn(C(C)(C)C)nc2C(=O)N2CCN(C)C(=O)C2(C)C)cc1-c1ccc(C(C)C)nc1` [1-(1-tert-butyl-3-(2,2,4-trimethyl-3-oxopiperazine-1-carbonyl)-1H-pyrazol-4-yl)-3-(3-(6-isopropylpyridin-3-yl)-4-methylphenyl)urea], below 0.1 µM.
In the case of `Cc1ccc(NC(=O)Nc2cn(C(C)(C)C)nc2C(=O)N2CCN(C)C(=O)C2(C)C)cc1-c1ccc(CN2CCOCC2)cn1` [1-(1-tert-butyl-3-(2,2,4-trimethyl-3-oxopiperazine-1-carbonyl)-1H-pyrazol-4-yl)-3-(4-methyl-3-(5-(morpholinomethyl)pyridin-2-yl)phenyl)urea] it was below 0.1 µM; in that of `Cc1ccc(NC(=O)Nc2cn(C(C)(C)C)nc2C(=O)N2CCN(C)C(=O)C2(C)C)cc1-c1ccc(N2CCOCC2)cn1` [1-(1-tert-butyl-3-(2,2,4-trimethyl-3-oxopiperazine-1-carbonyl)-1H-pyrazol-4-yl)-3-(4-methyl-3-(5-morpholinopyridin-2-yl)phenyl)urea], below 0.1 µM.
In the case of `Cc1ccc(NC(=O)Nc2cn(C(C)(C)C)nc2C(=O)N2CCN(C)C(=O)C2(C)C)cc1-c1ccc(CN2CCOCC2)nc1` [1-(1-tert-butyl-3-(2,2,4-trimethyl-3-oxopiperazine-1-carbonyl)-1H-pyrazol-4-yl)-3-(4-methyl-3-(6-(morpholinomethyl)pyridin-3-yl)phenyl)urea] it was below 0.1 µM; in that of `CCc1ccc(-c2cc(NC(=O)Nc3cn(C(C)(C)C)nc3C(=O)N3CCNC(=O)C3(C)C)ccc2C)cn1` [1-(1-tert-butyl-3-(2,2-dimethyl-3-oxopiperazine-1-carbonyl)-1H-pyrazol-4-yl)-3-(3-(6-ethylpyridin-3-yl)-4-methylphenyl)urea], below 0.1 µM.
`Cc1ccc(NC(=O)Nc2cn(C(C)(C)C)nc2C(=O)N2CCNC(=O)C2(C)C)cc1-c1ccc(C(C)C)nc1` [1-(1-tert-butyl-3-(2,2-dimethyl-3-oxopiperazine-1-carbonyl)-1H-pyrazol-4-yl)-3-(3-(6-isopropylpyridin-3-yl)-4-methylphenyl)urea]: the IC50 was below 0.1 µM.
Regarding `Cc1ccc(NC(=O)Nc2cn(C(C)(C)C)nc2C(=O)N2CCNC(=O)C2(C)C)cc1-c1ccc(CN2CCOCC2)cn1` [1-(1-tert-butyl-3-(2,2-dimethyl-3-oxopiperazine-1-carbonyl)-1H-pyrazol-4-yl)-3-(4-methyl-3-(5-(morpholinomethyl)pyridin-2-yl)phenyl)urea], the IC50 is below 0.1 µM.
Consider `Cc1ccc(NC(=O)Nc2cn(C(C)(C)C)nc2C(=O)N2CCNC(=O)C2(C)C)cc1-c1ccc(CN2CCOCC2)nc1` [1-(1-tert-butyl-3-(2,2-dimethyl-3-oxopiperazine-1-carbonyl)-1H-pyrazol-4-yl)-3-(4-methyl-3-(6-(morpholinomethyl)pyridin-3-yl)phenyl)urea], for which the IC50 is below 0.1 µM.
In the case of `Cc1ccc(NC(=O)Nc2cn(C(C)(C)C)nc2C(=O)N2CCNC(=O)C2(C)C)cc1-c1ccc(N2CCOCC2)nc1` [1-(1-tert-butyl-3-(2,2-dimethyl-3-oxopiperazine-1-carbonyl)-1H-pyrazol-4-yl)-3-(4-methyl-3-(6-morpholinopyridin-3-yl)phenyl)urea] it was below 0.1 µM; in that of `Cc1ccc(NC(=O)Nc2cn(C(C)(C)C)nc2C(=O)N2CCNC(=O)C2(C)C)cc1-c1cccnc1` [1-(1-tert-butyl-3-(2,2-dimethyl-3-oxopiperazine-1-carbonyl)-1H-pyrazol-4-yl)-3-(4-methyl-3-(pyridin-3-yl)phenyl)urea], below 0.1 µM; in that of `Cc1ccc(NC(=O)Nc2cn(C(C)(C)C)nc2C(=O)N2CCN(C3CCN(C)C3)C(=O)C2(C)C)cc1-c1cccnc1` (stereo not drawn) [1-(1-tert-butyl-3-(2,2-dimethyl-4-(1-methylpyrrolidin-3-yl)-3-oxopiperazine-1-carbonyl)-1H-pyrazol-4-yl)-3-(4-methyl-3-(pyridin-3-yl)phenyl)urea], below 1 µM.
In the case of `Cc1ccc(NC(=O)Nc2sc(C(C)(C)C)nc2C(=O)N2CCN(C)C(=O)C2(C)C)cc1-c1ccc(CN2CCOCC2)cn1` [1-(2-tert-butyl-4-(2,2,4-trimethyl-3-oxopiperazine-1-carbonyl)thiazol-5-yl)-3-(4-methyl-3-(5-(morpholinomethyl)pyridin-2-yl)phenyl)urea] it was below 0.1 µM; in that of `Cc1nnc(-c2ccc(-c3cc(NC(=O)Nc4sc(C(C)(C)C)nc4C(=O)N4CCN(C)C(=O)C4(C)C)ccc3C)cn2)o1` [1-(2-tert-butyl-4-(2,2,4-trimethyl-3-oxopiperazine-1-carbonyl)thiazol-5-yl)-3-(4-methyl-3-(6-(5-methyl-1,3,4-oxadiazol-2-yl)pyridin-3-yl)phenyl)urea], below 0.1 µM; in that of `Cc1ccc(NC(=O)Nc2sc(C(C)(C)C)nc2C(=O)N2CCN(C)C(=O)C2(C)C)cc1-c1ccc(CN2CCOCC2)nc1` [1-(2-tert-butyl-4-(2,2,4-trimethyl-3-oxopiperazine-1-carbonyl)thiazol-5-yl)-3-(4-methyl-3-(6-(morpholinomethyl)pyridin-3-yl)phenyl)urea], below 0.1 µM.
Take `CCc1ccc(-c2cc(NC(=O)Nc3cn(C4(C)CCCC4)nc3C(=O)N3CCNC(=O)C3(C)C)ccc2C)cn1` [1-(3-(2,2-dimethyl-3-oxopiperazine-1-carbonyl)-1-(1-methylcyclopentyl)-1H-pyrazol-4-yl)-3-(3-(6-ethylpyridin-3-yl)-4-methylphenyl)urea]: the IC50 was below 0.1 µM.
In the case of `Cc1ccc(NC(=O)Nc2sc(C(C)(C)C)cc2C(=O)N2CCN(C)C(=O)C2(C)C)cc1-c1ccc(-n2ccnc2)nc1` [1-(3-(6-(1H-imidazol-1-yl)pyridin-3-yl)-4-methylphenyl)-3-(5-tert-butyl-3-(2,2,4-trimethyl-3-oxopiperazine-1-carbonyl)thiophen-2-yl)urea] it was below 0.1 µM.
In the case of `Cc1ccc(NC(=O)Nc2sc(C(C)(C)C)cc2C(=O)N2CCN(C)C(=O)C2(C)C)cc1-c1ccc(-n2cccn2)nc1` [1-(3-(6-(1H-pyrazol-1-yl)pyridin-3-yl)-4-methylphenyl)-3-(5-tert-butyl-3-(2,2,4-trimethyl-3-oxopiperazine-1-carbonyl)thiophen-2-yl)urea] it was below 0.1 µM; in that of `Cc1ccc(NC(=O)Nc2sc(C(C)(C)C)cc2C(=O)N2CCNC(=O)C2(C)C)cc1-c1ccc(N2CCC(N)C2)nc1` (stereo not drawn) [1-(3-(6-(3-aminopyrrolidin-1-yl)pyridin-3-yl)-4-methylphenyl)-3-(5-tert-butyl-3-(2,2-dimethyl-3-oxopiperazine-1-carbonyl)thiophen-2-yl)urea], below 0.1 µM.
With `Cc1ccc(NC(=O)Nc2sc(C(C)(C)C)cc2C(=O)N2CCNC(=O)C2(C)C)cc1-c1ccc(CN)nc1` [1-(3-(6-(aminomethyl)pyridin-3-yl)-4-methylphenyl)-3-(5-tert-butyl-3-(2,2-dimethyl-3-oxopiperazine-1-carbonyl)thiophen-2-yl)urea], the 50% inhibitory concentration (IC50) was below 0.1 µM.
Consider `Cc1ccc(NC(=O)Nc2sc3c(c2C(=O)N2CCN(C)C(=O)C2(C)C)CCOC3)cc1-c1ccc(CN2CCOCC2)nc1` [1-(4-methyl-3-(6-(morpholinomethyl)pyridin-3-yl)phenyl)-3-(3-(2,2,4-trimethyl-3-oxopiperazine-1-carbonyl)-5,7-dihydro-4H-thieno[2,3-c]pyran-2-yl)urea], for which the 50% inhibitory concentration (IC50) was below 1 µM.
Regarding `CCC(C)(C)c1cc(C(=O)N2CCN(C)C(=O)C2(C)C)c(NC(=O)Nc2ccc(C)c(-c3ccc(CN4CCOCC4)nc3)c2)s1` [1-(4-methyl-3-(6-(morpholinomethyl)pyridin-3-yl)phenyl)-3-(5-tert-pentyl-3-(2,2,4-trimethyl-3-oxopiperazine-1-carbonyl)thiophen-2-yl)urea], the concentration for half-maximal inhibition (IC50) was below 0.1 µM.

One may read the IC50 as the midpoint of a concentration-inhibition curve.
